In ChEMBL document CHEMBL4007451, “The 2014 Philip S. Portoghese Medicinal Chemistry Lectureship: The "Phenylalkylaminome" with a Focus on Selected Drugs of Abuse” (J Med Chem, 2017):

Columns and labels:
Rattus norvegicus [1] = species on record: Rattus norvegicus; assay: Induction of stimulus generalization in rat trained to discriminate PMMA assessed as appropriate responding level to training drug by two lever method; assay type: functional; conditions: for ED50: Rattus norvegicus
Rattus norvegicus [2] = species on record: Rattus norvegicus; assay: Induction of stimulus generalization in rat trained to discriminate MDMA assessed as appropriate responding level to training drug by two lever method; assay type: functional; conditions: for ED50: Rattus norvegicus
[3] = target: T1, 5-hydroxytryptamine receptor 1A (Rattus norvegicus, UniProt P19327); assay: Displacement of [3H]-8-OH-DPAT from 5-HT1A receptor in Sprague-Dawley rat cortex membranes after 15 mins by liquid scintillation spectrometric method; assay type: cell membranes
T1 sequence (P19327 whole entry): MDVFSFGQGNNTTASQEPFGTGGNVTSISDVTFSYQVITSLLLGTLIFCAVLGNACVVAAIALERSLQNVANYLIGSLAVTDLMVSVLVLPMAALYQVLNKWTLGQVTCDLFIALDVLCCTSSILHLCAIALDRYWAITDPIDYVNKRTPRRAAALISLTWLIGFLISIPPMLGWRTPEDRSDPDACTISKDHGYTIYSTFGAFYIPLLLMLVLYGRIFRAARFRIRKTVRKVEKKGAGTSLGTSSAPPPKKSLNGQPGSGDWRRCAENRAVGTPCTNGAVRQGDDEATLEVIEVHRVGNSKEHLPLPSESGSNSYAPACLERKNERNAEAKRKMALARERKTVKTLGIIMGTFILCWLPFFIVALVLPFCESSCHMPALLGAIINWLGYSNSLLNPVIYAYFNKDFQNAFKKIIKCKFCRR

Rattus norvegicus [4] = species on record: Rattus norvegicus; assay: Induction of stimulus generalization in Sprague-Dawley rat trained to discriminate rac-cathinone assessed as appropriate responding level to training drug by two lever method; assay type: functional
Rattus norvegicus [5] = species on record: Rattus norvegicus; assay: Induction of stimulus generalization in rat trained to discriminate (+)amphetamine assessed as appropriate responding level to training drug by two lever method; assay type: functional
[6] = target: Sodium-dependent serotonin transporter (Rattus norvegicus, UniProt P31652); assay: Activity at SERT in rat synaptosomes assessed as release of [3H]HT after 5 mins by liquid scintillation counting method; assay type: subcellular
Chain of Sodium-dependent serotonin transporter (Rattus norvegicus, UniProt P31652) (P31652 whole entry): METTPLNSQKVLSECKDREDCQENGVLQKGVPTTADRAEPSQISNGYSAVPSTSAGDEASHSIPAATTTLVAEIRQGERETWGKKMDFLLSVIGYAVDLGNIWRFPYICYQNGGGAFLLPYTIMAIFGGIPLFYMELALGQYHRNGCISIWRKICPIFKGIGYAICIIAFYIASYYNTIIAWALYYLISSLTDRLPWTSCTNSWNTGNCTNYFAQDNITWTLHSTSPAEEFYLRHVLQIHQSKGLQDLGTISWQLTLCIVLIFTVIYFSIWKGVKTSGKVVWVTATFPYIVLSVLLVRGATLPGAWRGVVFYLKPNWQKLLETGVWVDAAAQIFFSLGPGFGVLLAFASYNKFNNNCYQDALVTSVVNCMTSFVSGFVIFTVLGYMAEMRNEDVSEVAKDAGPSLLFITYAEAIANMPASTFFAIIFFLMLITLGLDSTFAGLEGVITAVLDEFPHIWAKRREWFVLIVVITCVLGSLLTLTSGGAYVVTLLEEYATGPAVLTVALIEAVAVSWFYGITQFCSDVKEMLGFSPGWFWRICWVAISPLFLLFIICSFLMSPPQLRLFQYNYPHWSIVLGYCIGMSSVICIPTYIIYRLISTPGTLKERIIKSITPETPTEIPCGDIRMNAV

[7] = target: Sodium-dependent dopamine transporter (Rattus norvegicus, UniProt P23977); assay: Activity at DAT in rat synaptosomes assessed as release of [3H]DA after 5 mins by liquid scintillation counting method; assay type: subcellular
Chain of Sodium-dependent dopamine transporter (Rattus norvegicus, UniProt P23977) (P23977 whole entry): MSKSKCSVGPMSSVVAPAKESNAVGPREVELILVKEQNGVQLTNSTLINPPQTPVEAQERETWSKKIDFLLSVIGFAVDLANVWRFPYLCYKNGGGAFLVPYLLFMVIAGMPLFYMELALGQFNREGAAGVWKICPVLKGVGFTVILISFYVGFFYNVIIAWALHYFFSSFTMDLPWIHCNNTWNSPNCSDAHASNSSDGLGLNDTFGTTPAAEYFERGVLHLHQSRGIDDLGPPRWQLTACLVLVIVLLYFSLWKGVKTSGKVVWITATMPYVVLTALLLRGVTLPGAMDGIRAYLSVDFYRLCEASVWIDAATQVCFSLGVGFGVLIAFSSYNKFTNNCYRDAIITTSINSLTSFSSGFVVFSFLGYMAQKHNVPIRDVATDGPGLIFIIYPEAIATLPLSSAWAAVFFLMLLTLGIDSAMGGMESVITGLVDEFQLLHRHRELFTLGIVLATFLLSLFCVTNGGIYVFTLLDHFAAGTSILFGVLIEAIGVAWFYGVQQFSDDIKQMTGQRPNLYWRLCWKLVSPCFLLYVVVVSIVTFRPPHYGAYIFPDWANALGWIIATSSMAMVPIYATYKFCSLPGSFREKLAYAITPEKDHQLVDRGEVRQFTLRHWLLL

[8] = Activity at NET in rat synaptosomes assessed as release of [3H]NE after 30 mins by liquid scintillation counting method; assay type: subcellular
[9] = Displacement of [3H]ketanserin from rat brain 5HT2 receptor
Mus musculus = assay: Anxiolytic-like activity in iv dosed ICR mouse assessed as increase in marbles left uncovered measured after 30 mins by marble burying assay; assay type: functional; conditions: 0.5 h
[10] = Displacement of [3H]DTG from sigma receptor (unknown origin); set-up: species or system Homo sapiens
Homo sapiens = species on record: Homo sapiens; assay: Selectivity ratio of EC50 for SERT (unknown origin) assessed as release of [3H]HT to EC50 for DAT (unknown origin) by [3H]DA release assay
[11] = target: Sodium-dependent serotonin transporter (Homo sapiens, UniProt P31645); assay: Activity at SERT (unknown origin) assessed as release of [3H]HT
Chain of Sodium-dependent serotonin transporter (Homo sapiens, UniProt P31645) (P31645 whole entry): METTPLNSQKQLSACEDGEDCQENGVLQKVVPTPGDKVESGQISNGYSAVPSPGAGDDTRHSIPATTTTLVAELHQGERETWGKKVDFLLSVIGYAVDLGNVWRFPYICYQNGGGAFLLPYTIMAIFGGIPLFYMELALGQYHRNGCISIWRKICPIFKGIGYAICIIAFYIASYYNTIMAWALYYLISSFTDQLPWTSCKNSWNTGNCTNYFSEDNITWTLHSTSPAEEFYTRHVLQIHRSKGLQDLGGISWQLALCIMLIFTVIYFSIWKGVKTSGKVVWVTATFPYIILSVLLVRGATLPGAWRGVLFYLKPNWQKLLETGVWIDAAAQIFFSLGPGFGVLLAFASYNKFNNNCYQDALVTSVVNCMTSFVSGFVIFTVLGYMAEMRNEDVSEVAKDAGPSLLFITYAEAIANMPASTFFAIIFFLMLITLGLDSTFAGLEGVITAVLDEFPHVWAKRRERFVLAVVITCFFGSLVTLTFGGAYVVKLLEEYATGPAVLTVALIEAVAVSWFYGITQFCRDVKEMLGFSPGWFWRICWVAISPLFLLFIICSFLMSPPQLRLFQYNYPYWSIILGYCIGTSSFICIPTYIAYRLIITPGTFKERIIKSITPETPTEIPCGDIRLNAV

[12] = target: Sodium-dependent dopamine transporter (Homo sapiens, UniProt Q01959); assay: Activity at DAT (unknown origin) assessed as release of [3H]DA
Chain of Sodium-dependent dopamine transporter (Homo sapiens, UniProt Q01959) (Q01959 whole entry): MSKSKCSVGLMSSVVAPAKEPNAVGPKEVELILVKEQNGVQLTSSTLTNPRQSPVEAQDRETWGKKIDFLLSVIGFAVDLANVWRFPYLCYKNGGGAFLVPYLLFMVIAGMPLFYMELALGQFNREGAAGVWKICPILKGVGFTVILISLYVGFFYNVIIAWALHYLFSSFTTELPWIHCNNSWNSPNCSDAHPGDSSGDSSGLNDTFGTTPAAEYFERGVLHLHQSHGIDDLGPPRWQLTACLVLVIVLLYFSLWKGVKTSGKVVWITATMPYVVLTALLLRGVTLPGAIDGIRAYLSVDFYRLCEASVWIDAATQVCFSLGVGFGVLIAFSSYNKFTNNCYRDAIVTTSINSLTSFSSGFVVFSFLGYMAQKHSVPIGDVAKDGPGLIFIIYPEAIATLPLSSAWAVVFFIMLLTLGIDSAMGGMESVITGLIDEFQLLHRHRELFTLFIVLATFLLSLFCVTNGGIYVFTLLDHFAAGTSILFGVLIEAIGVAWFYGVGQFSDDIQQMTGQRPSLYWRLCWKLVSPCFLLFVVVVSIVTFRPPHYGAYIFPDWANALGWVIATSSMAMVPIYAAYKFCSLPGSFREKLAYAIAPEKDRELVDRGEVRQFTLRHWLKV

[13] = target: Sigma non-opioid intracellular receptor 1 (Cavia porcellus, UniProt Q60492); assay: Displacement of (+)-[3H]pentazocine from guinea pig brain membrane sigma1 receptor by scintillation spectrometric method
Chain of Sigma non-opioid intracellular receptor 1 (Q60492 whole entry): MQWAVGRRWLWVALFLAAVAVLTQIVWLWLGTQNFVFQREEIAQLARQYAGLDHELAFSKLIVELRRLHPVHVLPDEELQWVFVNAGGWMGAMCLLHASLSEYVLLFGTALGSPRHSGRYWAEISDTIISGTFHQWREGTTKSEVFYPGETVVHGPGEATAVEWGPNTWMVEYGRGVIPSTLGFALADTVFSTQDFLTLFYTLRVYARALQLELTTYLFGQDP

Rattus norvegicus [14] = species on record: Rattus norvegicus; assay: Induction of stimulus generalization in rat trained to discriminate DOM assessed as appropriate responding level to training drug by two lever method; assay type: functional
Rattus norvegicus [15] = species on record: Rattus norvegicus; assay: Induction of stimulus generalization in Sprague-Dawley rat trained to discriminate PMMA assessed as appropriate responding level to training drug by two lever method; assay type: functional
Rattus norvegicus [16] = species on record: Rattus norvegicus; assay: Induction of stimulus generalization in Sprague-Dawley rat trained to discriminate MDMA assessed as appropriate responding level to training drug by two lever method; assay type: functional; conditions: for ED50: Rattus norvegicus, Sprague-Dawley
Rattus norvegicus [17] = species on record: Rattus norvegicus; assay: Induction of stimulus generalization in Sprague-Dawley rat trained to discriminate alpha-ET assessed as appropriate responding level to training drug by two lever method; assay type: functional; conditions: for ED50: Rattus norvegicus, Sprague-Dawley
Rattus norvegicus [18] = species on record: Rattus norvegicus; assay: Induction of stimulus generalization in Sprague-Dawley rat trained to discriminate AMPH assessed as appropriate responding level to training drug by two lever method; assay type: functional; conditions: for ED50: Rattus norvegicus, Sprague-Dawley
Rattus norvegicus [19] = species on record: Rattus norvegicus; assay: Induction of stimulus generalization in Sprague-Dawley rat trained to discriminate DOM assessed as appropriate responding level to training drug by two lever method; assay type: functional
[20] = target: 5-hydroxytryptamine receptor 2A (Rattus norvegicus, UniProt P14842); assay: Displacement of [3H]ketanserin from 5HT2A in Sprague-Dawley rat frontal cortex membranes measured after 15 mins by scintillation counting method; set-up: species or system Membrane
Chain of 5-hydroxytryptamine receptor 2A (P14842 whole entry): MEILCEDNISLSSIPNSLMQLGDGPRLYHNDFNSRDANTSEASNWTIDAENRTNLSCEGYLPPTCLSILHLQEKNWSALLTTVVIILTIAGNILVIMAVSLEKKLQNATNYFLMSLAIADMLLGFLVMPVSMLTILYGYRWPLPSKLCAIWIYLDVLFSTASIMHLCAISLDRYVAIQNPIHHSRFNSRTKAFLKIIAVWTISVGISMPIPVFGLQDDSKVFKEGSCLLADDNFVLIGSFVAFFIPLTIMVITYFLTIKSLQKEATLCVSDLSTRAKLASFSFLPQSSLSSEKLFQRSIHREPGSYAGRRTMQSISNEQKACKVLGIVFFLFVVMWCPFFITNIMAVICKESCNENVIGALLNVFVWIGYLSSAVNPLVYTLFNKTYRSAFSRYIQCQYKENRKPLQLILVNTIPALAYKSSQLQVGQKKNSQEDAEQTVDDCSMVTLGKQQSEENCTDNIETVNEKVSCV

Rattus norvegicus [21] = species on record: Rattus norvegicus; assay: Induction of stimulus generalization in Sprague-Dawley rat trained to discriminate S(+)AMPH assessed as appropriate responding level to training drug by two lever method; assay type: functional
Rattus norvegicus [22] = species on record: Rattus norvegicus; assay: Induction of stimulus generalization in Sprague-Dawley rat trained to discriminate S(-)MCAT assessed as appropriate responding level to training drug by two lever method; assay type: functional
Rattus norvegicus [23] = species on record: Rattus norvegicus; assay: Induction of stimulus generalization in rat trained to discriminate S(+)methamphetamine assessed as appropriate responding level to training drug by two lever method; assay type: functional
Rhesus monkey = assay: In vivo agonist activity at 5HT2A in DOM-trained rhesus monkey assessed as increase in discriminative stimulus administered subcutaneously pretreated before testing; assay type: functional; conditions: Macaca mulatta, sc
Rattus norvegicus [24] = assay: In vivo agonist activity at 5HT2A in ip dosed DOM-trained Sprague-Dawley rat assessed as increase in discriminative stimulus pretreated before testing; assay type: functional

Q: Which results are given for COc1ccc(C[C@H](C)N)cc1OC?
A: ED50 (Rattus norvegicus [1]): 2.6 mg/kg; ED50 (Rattus norvegicus [2]): 6.1 mg/kg

Q: Which Ki [3] does the source give for CCN(CC)[C@@H]1CCc2cccc(O)c2C1 here?
A: The Ki was 9.65 nM.

Q: With C[C@@H](N)C(=O)c1ccccc1 as the compound, how does the ED50 (Rattus norvegicus [4]) read?
A: The ED50 was 0.72 mg/kg.

Q: What about the ED50 (Rattus norvegicus [5]) of the same compound?
A: The ED50 was 4.41 mg/kg.

Q: Which results are given for COc1cccc(C[C@H](C)N)c1 [(S)-M-METHOXYAMPHETAMINE]?
A: Activity (Rattus norvegicus [1]): 20 - 80%; Activity (Rattus norvegicus [2]): <20%

Q: For CN[C@H](C)Cc1ccc(OC)cc1, which EC50 [6] is on record?
A: Its EC50 is 134 nM.

Q: What about the EC50 [7] of the same compound?
A: Its EC50 is 1600 nM.

Q: What about the EC50 [8] of the same compound?
A: Its EC50 is greater than 14000 nM.

Q: With C[C@@H](N)Cc1c[nH]c2ccccc12 as the compound, how does the Ki [9] read?
A: Its Ki is 5000 nM.

Q: Which results are given for COc1ccc(C[C@@H](C)N)cc1?
A: ED50 (Rattus norvegicus [1]): 0.4 mg/kg; Activity (Rattus norvegicus [2]): <20%

Q: With C[C@H](N)Cc1ccc2c(c1)OCO2 as the compound, how does the EC50 [6] read?
A: Its EC50 is 100 nM.

Q: And the ED50 (Rattus norvegicus [1])?
A: The ED50 was 0.7 mg/kg.

Q: What about the EC50 [7] of the same compound?
A: Its EC50 is 98 nM.

Q: And the EC50 [8]?
A: Its EC50 is 50 nM.

Q: For O=C1CC2(CCCC2)CC(=O)N1CCCCN1CCN(c2ncccn2)CC1 [BUSPIRONE], which ED50 (Mus musculus) is on record?
A: Its ED50 is 2.36 mg/kg.

Q: With C=CCN1CCC2(C)c3cc(O)ccc3CC1C2C (racemic) as the compound, how does the Ki [10] read?
A: Its Ki is 430 nM.

Q: With CNC(C)C(=O)c1ccc(C)cc1 (stereo unspecified) [MEPHEDRONE] as the compound, how does the Ratio EC50 (Homo sapiens) read?
A: The Ratio EC50 was 2.5.

Q: And the EC50 [11]?
A: The EC50 was 118 nM.

Q: And the EC50 [12]?
A: Its EC50 is 49.1 nM.

Q: With CCCCCCN(C)CCc1ccccc1 as the compound, how does the Ki [13] read?
A: The Ki was 48 nM.

Q: Which Ki [3] does the source give for CCCCN(CCCC)[C@@H]1CCc2cccc(O)c2C1 here?
A: Its Ki is 109 nM.

Q: With C[C@@H](Cc1ccccc1)NCCCCCc1ccccc1 as the compound, how does the Ki [13] read?
A: Its Ki is 0.9 nM.

Q: For CN1C(=O)CN=C(c2ccccc2)c2cc(Cl)ccc21 [DIAZEPAM], which ED50 (Mus musculus) is on record?
A: Its ED50 is 0.26 mg/kg.

Q: Which Ki [9] does the source give for CC(N)Cc1c[nH]c2ccccc12 (stereo unspecified) here?
A: The Ki was 3100 nM.

Q: What about the ED50 (Rattus norvegicus [14]) of the same compound?
A: The ED50 was 3.1 mg/kg.

Q: Which Ki [13] does the source give for c1ccc(CCCCCN2CCCCC2Cc2ccccc2)cc1 (stereo unspecified) here?
A: Its Ki is 0.08 nM.

Q: With CNC(C)Cc1ccc(OC)cc1 (stereo unspecified) as the compound, how does the ED50 (Rattus norvegicus [15]) read?
A: The ED50 was 0.4 mg/kg.

Q: What about the ED50 (Rattus norvegicus [16]) of the same compound?
A: Its ED50 is 0.2 mg/kg.

Q: And the ED50 (Rattus norvegicus [17])?
A: Its ED50 is 0.7 mg/kg.

Q: What does the source list for CC[C@@H](N)Cc1c[nH]c2ccccc12?
A: EC50 [6]: 68 nM; ED50 (Rattus norvegicus [18]): 7.8 mg/kg; EC50 [7]: 900 nM; Activity (Rattus norvegicus [19]): 33%; EC50 [8]: > 10000 nM; ED50 (Rattus norvegicus [15]): 1.6 mg/kg; ED50 (Rattus norvegicus [16]): 1.3 mg/kg; ED50 (Rattus norvegicus [17]): 1.6 mg/kg

Q: Which EC50 [6] does the source give for CN[C@H](C)Cc1ccc2c(c1)OCO2 here?
A: The EC50 was 340 nM.

Q: And the EC50 [7]?
A: Its EC50 is 3700 nM.

Q: And the EC50 [8]?
A: Its EC50 is 560 nM.

Q: What about the Ki [20] of the same compound?
A: Its Ki is 3310 nM.

Q: For C[C@H](Cc1ccccc1)NCCCCCc1ccccc1, which Ki [13] is on record?
A: Its Ki is 0.5 nM.

Q: What does the source list for CNC(C)C(=O)c1ccccc1 (stereo unspecified)?
A: Ratio EC50 (Homo sapiens): > 200; EC50 [11]: 3860 nM; EC50 [12]: 12.5 nM

Q: With CN[C@@H](C)Cc1ccc(OC)cc1 as the compound, how does the EC50 [6] read?
A: The EC50 was 41 nM.

Q: And the ED50 (Rattus norvegicus [1])?
A: The ED50 was 0.3 mg/kg.

Q: And the EC50 [7]?
A: The EC50 was 1000 nM.

Q: And the EC50 [8]?
A: Its EC50 is 147 nM.

Q: For C[C@H](N)[C@@H](O)c1ccccc1 [CATHINE], which ED50 (Rattus norvegicus [4]) is on record?
A: Its ED50 is 1.61 mg/kg.

Q: Which results are given for C[C@H](N)Cc1ccccc1 [DEXTROAMPHETAMINE]?
A: ED50 (Rattus norvegicus [21]): 0.44 mg/kg; ED50 (Rattus norvegicus [4]): 0.2 mg/kg; ED50 (Rattus norvegicus [18]): 0.4 mg/kg; Ki [10]: 46000 nM; EC50 [8]: 7 nM; ED50 (Rattus norvegicus [22]): 0.23 mg/kg; ED50 (Rattus norvegicus [5]): 0.62 mg/kg; Activity (Rattus norvegicus [16]): 20 - 80%; ED50 (Rattus norvegicus [23]): 0.28 mg/kg; Activity (Rattus norvegicus [17]): 20 - 80%

Q: With COc1cc(C[C@@H](C)N)c(OC)cc1I as the compound, how does the ED50 (Rhesus monkey) read?
A: The ED50 was 0.04 mg/kg.

Q: And the ED50 (Rattus norvegicus [24])?
A: Its ED50 is 0.2 mg/kg.

Q: Which results are given for CCC(N)Cc1c[nH]c2ccccc12 (racemic) [ETRYPTAMINE]?
A: Activity (Rattus norvegicus [18]): 20 - 80%; ED50 (Rattus norvegicus [19]; Rattus norvegicus, Sprague-Dawley): 6.6 mg/kg; ED50 (Rattus norvegicus [16]): 3.5 mg/kg; ED50 (Rattus norvegicus [14]): 6.6 mg/kg; ED50 (Rattus norvegicus [17]): 1.3 mg/kg

Q: With COc1ccc(C[C@@H](C)N)cc1OC as the compound, how does the ED50 (Rattus norvegicus [1]) read?
A: The ED50 was 3 mg/kg.

Q: And the ED50 (Rattus norvegicus [2])?
A: The ED50 was 5.4 mg/kg.

Q: What does the source list for CNC(C)Cc1ccc2c(c1)OCO2 (racemic) [MIDOMAFETAMINE]?
A: EC50 [6]: 72 nM; ED50 (Rattus norvegicus [1]): 1.32 mg/kg; EC50 [7]: 278 nM; EC50 [8]: 110 nM
